Laboratory results taken from US20250388542A1, “ANALOGUES OF PENTAMIDINE AND USES THEREFOR” (Auransa Inc., priority 2018, published 2025).
pIC50: −log10 of the molar value.

Tests used:
Experiment in all cases: CellTiter-Glo cytotoxicity, cancer cell line panel
Format in all cases: cell-based
Caki-1 = details: Homo sapiens; Caki-1, Clear cell renal cell carcinoma
Experimental: (§1) The objective of this study is to investigate potential cell killing effect of Compounds 1-15 on 3 cancer cell lines. 50% inhibition concentration (IC50) was determined for these compounds in various cancer cell lines using CellTiter-Glo™ luminescent cell viability assay at different compound concentrations. Each cell line (e.g., NCI-H209; NCI-H69; and SW1271) was treated with Compounds 1-15 and culture medium contains 0.2% [v/v] DMSO vehicle control. All the cells were cultured in the media supplemented with 10-20% fetal bovine serum at 37° C., 5% CO2 and 95% humidity.
(§2) The objective of this study is to investigate the effect of Compound 1 on cytotoxicity against 61 different types of cancer cell lines. IC50 were values were obtained using CellTiter-Glo™ as described above. Each cell line shown in Table 3 was treated with Compound 1, a standard chemotherapy drug, cisplatin, as reference control and culture medium contains 0.2% [v/v] DMSO vehicle control. All cancer cell lines were cultured in media supplemented with 10-20% fetal bovine serum at 37° C., 5% CO2 and 95% humidity.

Caki-2 = details: Homo sapiens; Caki-2, Papillary renal cell carcinoma
Experimental: as §1, §2

DLD-1 = details: Homo sapiens; DLD-1, Colon adenocarcinoma
Experimental: as §1, §2

HCCC-9810 = details: HCCC9810; HCCC-9810, Intrahepatic cholangiocarcinoma
Experimental: as §1, §2

HCT 116 = details: Homo sapiens; HCT 116, Colon carcinoma
Experimental: as §1, §2

HLE = details: Homo sapiens, Hepatocellular carcinoma
Experimental: as §1, §2

HUH-1 = details: Homo sapiens; HUH-1, Hepatocellular carcinoma
Experimental: as §1, §2

HUH-6 CLONE5 = details: HUH-6 CLONE5, Hepatoblastoma carcinoma
Experimental: as §1, §2

HUH-7 = details: Homo sapiens; HUH-7, Hepatocellular carcinoma
Experimental: as §1, §2

JHH-1 = details: JHH1; JHH-1, Hepatocellular carcinoma
Experimental: as §1, §2

LN-229 = details: Homo sapiens; LN-229, Glioblastoma
Experimental: as §1, §2

MHCC97-H = details: Homo sapiens, MHCC97H, Hepatocellular carcinoma
Experimental: as §1, §2

NCI-H1975 = details: Homo sapiens; NCI-H1975, Lung adenocarcinoma
Experimental: as §1, §2

NCI-H460 = details: Homo sapiens; NCI-H460, Large cell lung carcinoma
Experimental: as §1, §2

OCUG-1 = details: OCUG-1, Gallbladder carcinoma
Experimental: as §1, §2

OVCAR-3 = details: Homo sapiens; OVCAR-3, High grade ovarian serous adenocarcinoma
Experimental: as §1, §2

SNU-354 = details: Homo sapiens; SNU-354, Hepatocellular carcinoma
Experimental: as §1, §2

SNU-398 = details: Homo sapiens; SNU-398, Hepatocellular carcinoma
Experimental: as §1, §2

SNU-739 = details: SNU-739, Hepatocellular carcinoma
Experimental: as §1, §2

Saos-2 = details: Homo sapiens; Saos-2, Osteosarcoma
Experimental: as §1, §2

## N=C(N)c1ccc(OCCCCCOc2ccc(C(=N)N)nc2)cc1 [Compound 1, 5-(5-(4-carbamimidoylphenoxy)pentyloxy)picolinimidamide]
Caki-1
  pIC50: 5.47
Caki-2
  pIC50: 5.38
DLD-1
  pIC50: 5.51
HCCC-9810
  pIC50: 6.15
HCT 116
  pIC50: 5.57
HLE
  pIC50: 6.23
HUH-1
  pIC50: 5.49
HUH-6 CLONE5
  pIC50: 6.07
HUH-7
  pIC50: 6.01
JHH-1
  pIC50: 5.41
LN-229
  pIC50: 5.80
MHCC97-H
  pIC50: 5.08
NCI-H1975
  pIC50: 5.58
NCI-H460
  pIC50: 6.28
OCUG-1
  pIC50: 5.54
OVCAR-3
  pIC50: 5.71
SNU-354
  pIC50: 6.08
SNU-398
  pIC50: 6.66
SNU-739
  pIC50: 5.65
Saos-2
  pIC50: 5.62
